Earlier results as cited in patent publication US9884121B2, “Biomaterials and a method for making and using same” (Alumend, LLC, priority 2007, dated 2018).

Test system: Skin-to-skin
Conditions: U.S. Pat. No. 5,817,303

C=C(C#N)C(=O)OCC [Ethyl cyanoacrylate]
Shear Strength: 385 ± 119 g-f/cm^2
